Experimental data taken from US9555038B2, “Heterocycle-substituted tetracyclic compounds and methods of use thereof for the treatment of viral diseases” (Merck Sharp & Dohme Corp., priority 2013, dated 2017).
Where two headings read alike, the source gives them in different places.

Experiments:
HCV replicon 1AY93H = test: Cell-based HCV Replicon Assay A, replicon 1AY93H
Method in brief: (§1)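 2000 cells/well; 10 serial dilutions, top concentration 333.3 nM to 1.667 nM; 0.5% DMSO, 5% FBS; 3 days; lysis; multiplex TaqMan RT-PCR (NS5B/Neo plus cyclophilin), RNA from linear Ct standard curves.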

HCV replicon 1AQ30D = test: Cell-based HCV Replicon Assay B, replicon 1AQ30D
Method: In an alternate assay (“Replicon Assay B”), 1000 cells were seeded per well in a 384-well collagen coated black plate from Greiner bio-one (Cat #781946) in 5% FBS. Inhibitors of this invention were added at 24 h post-seeding, and the plates were incubated for 3 days. Cells were subsequently lysed with Qiagen lysis buffer (Cat #1062731) to extract the RNA. HCV replicon RNA level was measured by real-time PCR using the RNA-to-CT kit from Applied Biosystem (Cat #4392656) and genotype-specific primers and probes. The amplicon was located within NS5B. The sequence of the PCR primers are as follows: 5B.2F, ATGGACAGGCGCCCTGA (SEQ. ID NO. 1); 5B.2R, […] (SEQ. ID NO. 2); the probe sequence was FAM-labeled CACGCCATGCGCTGCGG (SEQ. ID NO. 3). To detect genotype 1A the primer 1A F, TGCGGAACCGGTGAGTACA and 1A R, […] were used; the probe sequence was FAM-[…].
The real-time RT-PCR reactions were run on ABI PRISM 7900HT or Viia7 Sequence Detection System using the following program: 48° C. for 30 minutes, 95° C. for 10 minutes, 40 cycles of 95° C. for 15 sec, 60° C. for 1 minutes. The 50% effective concentration (EC50) was the drug concentration necessary to achieve an increase in the cycle threshold (CT) of 1 over the projected baseline CT.
Data was obtained for various compounds of the present invention using the methods described in the Example above, and is presented in the table immediately below. Data for replicons 1A, 1AY93H and 2B were obtained using Replicon Assay A and data for replicons 1AQ30D and 1B were obtained using Replicon Assay B.

HCV replicon 1B = test: Cell-based HCV Replicon Assay B, replicon 1B
Method in brief: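 EC50 defined as the drug concentration giving a CT increase of 1 above projected baseline, from real-time RT-PCR of replicon RNA using genotype-specific primers and probes. Cells were seeded in 5% FBS, dosed after 24 h and incubated 3 days before lysis.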

HCV replicon 1A = test: Cell-based HCV Replicon Assay A, replicon 1A
Method in brief: as §1

HCV replicon 2B = test: Cell-based HCV Replicon Assay A, replicon 2B
Method in brief: as §1

[1] = Hepatitis C virus, read-out: 1A Y93H IC50 (nM), replicon 1AY93H
[2] = Hepatitis C virus, read-out: 1A Q30D IC50 (nM), replicon 1AQ30D
[3] = Hepatitis C virus, read-out: 2B IC50 (nM), replicon 2B
[4] = read-out: 1A Y93H IC50, replicon 1AY93H
[5] = read-out: 1A Q30D IC50, replicon 1AQ30D

Structure (SMILES) | IC50 (HCV replicon 1AY93H; [1]) | IC50 (HCV replicon 1AQ30D; [2]) | IC50 (HCV replicon 1B; Hepatitis C virus) | IC50 (HCV replicon 1A; Hepatitis C virus) | IC50 (HCV replicon 2B; [3]) | IC50 (HCV replicon 2B; read-out: 2B IC50, replicon 2B) | IC50 (HCV replicon 1AY93H; [4]) | IC50 (HCV replicon 1A) | IC50 (HCV replicon 1AQ30D; [5]) | IC50 (HCV replicon 1B)
COC(=O)N[C@H](C(=O)N1CCC[C@H]1c1ncc(-c2cc(F)c3c(c2)OC(c2cnc(-c4ccccn4)s2)n2c-3cc3cc(-c4cnc([C@@H]5CCCN5C(=O)[C@@H](NC(=O)OC)C(C)C)[nH]4)ccc32)[nH]1)C(C)C (mixture of isomers) [Compound 407] | 0.143 nM | 0.482 nM | 4 pM | 2.7 pM | 0.192 nM | – | – | – | – | –
COC(=O)N[C@H](C(=O)N1CCC[C@H]1c1ncc(-c2cc(F)c3c(c2)OC(c2cnc(C)s2)n2c-3cc3cc(-c4cnc([C@@H]5CCCN5C(=O)[C@@H](NC(=O)OC)C(C)C)[nH]4)ccc32)[nH]1)C(C)C (mixture of isomers) [Compound 416] | 0.085 nM | 1.77 nM | 3 pM | 2.2 pM | 0.119 nM | – | – | – | – | –
COC(=O)N[C@H](C(=O)N1CCC[C@H]1c1ncc(-c2cc(F)c3c(c2)OC(c2cnc(C(C)(C)C)s2)n2c-3cc3cc(-c4cnc([C@@H]5CCCN5C(=O)[C@@H](NC(=O)OC)C(C)C)[nH]4)ccc32)[nH]1)C(C)C (mixture of isomers) [Compound 418] | 0.0083 nM | 0.255 nM | 3 pM | 2.3 pM | 0.095 nM | – | – | – | – | –
COC(=O)N[C@H](C(=O)N1CCC[C@H]1c1ncc(-c2cc(F)c3c(c2)OC(c2cnc(-c4cnccn4)s2)n2c-3cc3cc(-c4cnc([C@@H]5CCCN5C(=O)[C@@H](NC(=O)OC)C(C)C)[nH]4)ccc32)[nH]1)C(C)C (mixture of isomers) [Compound 423] | 0.0526 nM | 0.444 nM | 7 pM | 5.3 pM | 0.041 nM | – | – | – | – | –
COC(=O)N[C@H](C(=O)N1CCC[C@H]1c1ncc(-c2cc(F)c3c(c2)OC(c2cnc(C4CC4C)s2)n2c-3cc3cc(-c4cnc([C@@H]5CCCN5C(=O)[C@@H](NC(=O)OC)C(C)C)[nH]4)ccc32)[nH]1)C(C)C (mixture of isomers) [Compound 491] | 0.01 nM | 0.3 nM | 2.6 pM | 2.9 pM | 0.013 nM | – | – | – | – | –
CCC(CC)c1ncc(C2Oc3cc(-c4cnc([C@@H]5CCCN5C(=O)[C@@H](NC(=O)OC)C(C)C)[nH]4)cc(F)c3-c3cc4cc(-c5cnc([C@@H]6CCCN6C(=O)[C@@H](NC(=O)OC)C(C)C)[nH]5)ccc4n32)s1 (mixture of isomers) [Compound 524] | 0.008 nM | 0.183 nM | 2 pM | 3 pM | 0.105 nM | – | – | – | – | –
COC(=O)N[C@H](C(=O)N1CCC[C@H]1c1ncc(-c2cc(F)c3c(c2)OC(c2cncs2)n2c-3cc3cc(-c4cnc([C@@H]5CCCN5C(=O)[C@@H](NC(=O)OC)C(C)C)[nH]4)ccc32)[nH]1)C(C)C (single isomer, unassigned) [Compound 2] | 6.95 nM | 38.3 nM | 30 pM | 3.5 pM | – | 2.31 nM | – | – | – | –
COC(=O)N[C@H](C(=O)N1CCC[C@H]1c1ncc(-c2cc(F)c3c(c2)OC(c2cnns2)n2c-3cc3cc(-c4cnc([C@@H]5CCCN5C(=O)[C@@H](NC(=O)OC)C(C)C)[nH]4)ccc32)[nH]1)C(C)C (single isomer, unassigned) [Compound 3] | – | 1.05 nM | 2 pM | 1.5 pM | – | 0.14 nM | 0.048 nM | – | – | –
COC(=O)N[C@H](C(=O)N1CCC[C@H]1c1ncc(-c2cc(F)c3c(c2)OC(c2cnc(C4CC4)s2)n2c-3cc3cc(-c4cnc([C@@H]5CCCN5C(=O)[C@@H](NC(=O)OC)C(C)C)[nH]4)ccc32)[nH]1)C(C)C (single isomer, unassigned) [Compound 10] | – | 0.097 nM | 2 pM | – | – | 0.011 nM | 0.0035 nM | 1.4 pM | – | –
COC(=O)N[C@H](C(=O)N1CCC[C@H]1c1ncc(-c2cc(F)c3c(c2)OC(c2cnc(OC)s2)n2c-3cc3cc(-c4cnc([C@@H]5CCCN5C(=O)[C@@H](NC(=O)OC)C(C)C)[nH]4)ccc32)[nH]1)C(C)C (single isomer, unassigned) [Compound 14] | – | 0.115 nM | 2 pM | – | – | 0.015 nM | 0.0034 nM | 1.4 pM | – | –
COC(=O)N[C@H](C(=O)N1CCC[C@H]1c1ncc(-c2cc(F)c3c(c2)OC(c2cnc(C(F)F)s2)n2c-3cc3cc(-c4cnc([C@@H]5CCCN5C(=O)[C@@H](NC(=O)OC)C(C)C)[nH]4)ccc32)[nH]1)C(C)C (single isomer, unassigned) [Compound 20] | – | 0.01 nM | 1 pM | 1.5 pM | – | 0.008 nM | 0.0083 nM | – | – | –
COC(=O)N[C@H](C(=O)N1CCC[C@H]1c1ncc(-c2cc(F)c3c(c2)OC(c2cnc(C4CCCC4)s2)n2c-3cc3cc(-c4cnc([C@@H]5CCCN5C(=O)[C@@H](NC(=O)OC)C(C)C)[nH]4)ccc32)[nH]1)C(C)C (single isomer, unassigned) [Compound 25] | – | 0.07 nM | 1 pM | 2.5 pM | – | 0.014 nM | 0.0025 nM | – | – | –
COC(=O)NC(C(=O)N1[C@@H]2C[C@@H]2C[C@H]1c1ncc(-c2ccc3c(c2)cc2n3C(c3cnc(C4CC4)s3)Oc3cc(-c4cnc([C@@H]5CCCN5C(=O)[C@@H](NC(=O)OC)C(C)C)[nH]4)cc(F)c3-2)[nH]1)C(C)(C)F (single isomer, unassigned) [Compound 27] | – | – | 2 pM | 1.6 pM | – | 0.009 nM | 0.0037 nM | – | 0.02 nM | –
COC(=O)NC(C(=O)N1[C@@H]2C[C@@H]2C[C@H]1c1ncc(-c2ccc3c(c2)cc2n3C(c3cnc(C4CC4)s3)Oc3cc(-c4cnc([C@@H]5CCCN5C(=O)[C@@H](NC(=O)OC)C(C)C)[nH]4)cc(F)c3-2)[nH]1)C(C)(C)F (single isomer, unassigned) [Compound 28] | – | – | – | – | – | 0.204 nM | 0.115 nM | 1.2 pM | 0.908 nM | 2 pM
COC(=O)NC(C(=O)N1CCC[C@H]1c1ncc(-c2ccc3c(c2)cc2n3C(c3cnc(C)s3)Oc3cc(-c4cnc([C@@H]5CCCN5C(=O)[C@@H](NC(=O)OC)C(C)C)[nH]4)cc(F)c3-2)[nH]1)C1C[C@@H](C)O[C@@H](C)C1 (single isomer, unassigned) [Compound 30] | – | 0.112 nM | 3 pM | – | – | 0.014 nM | 0.0118 nM | 2.8 pM | – | –
COC(=O)N[C@H](C(=O)N1CCC[C@H]1c1ncc(-c2cc(F)c3c(c2)OC(c2cnc(-c4ccc(F)cc4)s2)n2c-3cc3cc(-c4cnc([C@@H]5CCCN5C(=O)[C@@H](NC(=O)OC)C(C)C)[nH]4)ccc32)[nH]1)C(C)C (single isomer, unassigned) [Compound 31] | – | 0.046 nM | 1 pM | 1.2 pM | – | 0.004 nM | 0.0063 nM | – | – | –
COC(=O)N[C@H](C(=O)N1CCC[C@H]1c1ncc(-c2cc(F)c3c(c2)OC(c2ncc(-c4ccc(F)cc4)s2)n2c-3cc3cc(-c4cnc([C@@H]5CCCN5C(=O)[C@@H](NC(=O)OC)C(C)C)[nH]4)ccc32)[nH]1)C(C)C (single isomer, unassigned) [Compound 33] | – | – | 1 pM | 1.7 pM | – | 0.746 nM | 1.18 nM | – | 1.67 nM | –
